# Test results: patent US6552028B2, “2,4-substituted pyrrolidine derivatives-CCR-3 receptor antagonists” (Syntex (U.S.A.) LLC, priority 2000, dated 2003)
compound,measurement,value
COc1ccc(-c2cnc(SCC(=O)NCC[C@@H]3C[C@@H](Cc4ccc(Cl)c(Cl)c4)CN3)nc2)cc1OC.Cl,melting point,100.5 to 102.1 °C
